According to patent US8389573B2, “Glycyrrhetinic acid derivatives” (Wellington Laboratories Inc., priority 2006, dated 2013):

Legend:
[1] = tested on: SW480 colon cancer cells; test: Cell proliferation assay in SW480 cells; type: cell-based; settings: Homo sapiens, read-out: IC50, growth inhibition / cell proliferation
Protocol: Human colon carcinoma cell lines SW480 and HT29 were provided by Dr. Stan Hamilton, M.D. Anderson Cancer Center (Houston, Tex.); SW-480 and HT-29 cells were maintained in Dulbecco's modified Eagle's medium nutrient mixture with Ham's F-12 (DMEM/Ham's F-12; Sigma-Aldrich, St. Louis, Mo.) with phenol red supplemented with 0.22% sodium bicarbonate, 0.011% sodium pyruvate, and 5% fetal bovine serum and 10 ml/l 100× antibiotic antimycotic solution (Sigma-Aldrich). Cells were maintained at 37° C. in the presence of 5% CO2.
SW480 and HT 29 Cells (2×10^4) were plated in 12-well plates, and media were replaced the next day with DMEM/Ham's F-12 media containing 2.5% charcoal-stripped FBS and either vehicle (DMSO) or the indicated ligand and dissolved in DMSO. Fresh media and compounds were added every 48 h. Cells were counted at the indicated times using a Coulter Z1 cell counter. Each experiment was done in triplicate, and results are expressed as means±S.E. for each determination

[2] = tested on: PSA promoter; test: PSA-luc promoter luciferase assay in LNCaP cells; type: cell-based; settings: basal
From the text: Transfections: The Gal4 reporter construct containing 5× Gal4 response elements (pGal4) was kindly provided by Dr. Marty Mayo (University of North Carolina, Chapel Hill, N.C.). The Gal4 DBD-PPARγ construct was a gift of Dr. Jennifer L. Oberfield (Glaxo Wellcome Research and Development, Research Triangle Park, N.C.). The PPRE-luc construct contains three tandem PPREs with a minimal TATA sequence linked to the luciferase gene in pGL2. The AR-luc construct containing the −5400 to +580 region of the androgen receptor promoter was provided by Dr. Donald J. Tindall (Mayo Clinic, Rochester, Minn.), and the PSA-luc construct containing the 5.8-kilobase region of the PSA promoter was provided by Dr. Hong-Wu Cheng (University of California, Davis, Calif.). LNCaP cells (1×10^5) were seeded in 12-well plates in DMEM/Ham's F-12 media supplemented with 2.5% charcoal-stripped FBS and grown overnight. Transient transfections were performed using Lipofectamine reagent (Invitrogen) according to the protocol provided by the manufacturer. Transfection studies were performed using 0.4 μg of Gal4Luc, 0.04 μg of β-galactosidase, 0.04 μg of Gal4 DBD-PPARγ, 0.4 μg of AR-luc, and 0.3 μg of PSA-luc. […] A Lumicount luminometer (PerkinElmer Life and Analytical Sciences) was used to quantify luciferase and β-galactosidase activities, and the luciferase activities were normalized to β-galactosidase activity.

[3] = tested on: Sp1, Sp3 and Sp4 in liver; test: Sp protein expression in non-target tissue (liver) of treated mice; type: in vivo; settings: preliminary results
From the text: (i) Animal treatment: Male athymic nude mice are obtained from commercial sources and their use approved by the Institutional Animal Care and Use Committee. Ten animals are used for each treatment group and based on consultation with biostatisticians, this number is sufficient for determining statistical significance between treatment groups (41, 42). At least one AR-positive (LNCaP/22Rv1) and AR-negative (PC3/DU145) prostate cancer cell line is used in the xenograft study. Cells are harvested by exposure to trypsin and resuspended in serum-free Hanks' balanced salt solution (HBSS). […] In addition, Western blot analysis of Sp proteins, proapoptotic and antiangiogenic responses is determined on whole cell lysates from compound- and corn oil (vehicle)-treated tumors. Where possible (depending on the amount of protein extracted), the effects of the compound versus corn oil on expression of these proteins is quantitated and statistically analyzed. In addition, the effects of the compound on Sp protein expression in non-target tissue (e.g. liver and kidney) is determined. […] Immunostaining for Sp1, Sp3 and Sp4 and for angiogenic (VEGF, VEGFR1 and VEGFR2) and apoptotic (cleaved PARP, activated caspase 3, survivin and TUNEL) proteins/responses are determined as described above.

COC(=O)[C@@]1(C)CC[C@]2(C)CC[C@]3(C)C(=CC(=O)[C@@H]4[C@@]5(C)C=C(C#N)C(=O)C(C)(C)[C@@H]5CC[C@]43C)[C@@H]2C1 [β-CDODA-Me, Methyl 2-cyano-3,11-dioxo-18β-oleana-1,12-dien-30-oate]
IC50 [1]: 200 to 500 nM | transactivation of PSA-Luc construct [2]: inhibited transactivation | Sp1, Sp3 and Sp4 expression in liver [3]: unaffected
